{
  "source": "patent US20040198770A1",
  "about": "“Uses for l-tetrahydropalmatine” (PharmacoGenetics Limited, priority 2003, published 2004)",
  "format_in_all_cases": "in vivo",
  "key": {"ICR mice [1]": {"test_system": "ICR mice", "assay": "Hole-board test", "settings": "300 s", "method": "(§1) ICR mice of male sex, weighing 15.6-17.8 g were used, provided by Experimental Animal Centre of HKUST, housed in groups, given food and water ad libitum and maintained on a 12 hour light: 12 hour dark cycle. All of the experimental groups had 12 animals per group.\n(§2) For each experimental animal, administered orally 0.2 ml (pH 7.2) of respective solvent at concentrations as stated above for each group (or double-distilled water for normal control group) one hour before testing.\nThe hole-board apparatus is a 0.5 cm thick walled wood arena of 60×60×30 cm, with four 5 cm equidistant 4 cm diameter holes spaced on the floor. The mice are placed on the centre of the arena and the number of head-dip on the hole and the number of rearing are counted during a 300 second test period (File S. E. et al., “The effects of triazolobenzo-diazepines in two animal tests of anxiety and in the holeboard.”, Br J Pharmacol. 1985 November; 86(3): 729-35; PMID: 2866006). After each trial, the floor of the apparatus was wiped and dried thoroughly with tissue to remove traces of the previous path."}, "ICR mice [2]": {"test_system": "ICR mice", "assay": "Elevated plus-maze test", "settings": "mice", "method": "as §1, §2\nThe elevated plus-maze is made of 0.5 cm thick wood as a horizontal cross consisting of two open arms (25×5 cm) and two opposite arms (25×5 cm) enclosed by 10 cm high walls. The arms extend from a central platform having dimensions of 5×5 cm. The plus-maze is elevated to a height of 40 cm from the floor. The maze is put inside a box with dimensions of 30×30×50 cm. The mice are placed on the central platform of the maze facing a closed arm. The number of arm entries and the time spent in the open and closed arm are counted for 300 seconds (Pellow S. et al., “Anxiolytic and anxiogenic drug effects on exploratory activity in an elevated plus-maze: a novel test of anxiety in the rat”, Pharmacol Biochem Behav. 1986 March; 24(3): 525-9; PMID: 2871560). Arm entry was defined as one half body entered into the arm."}, "ICR mice [3]": {"test_system": "ICR mice", "assay": "Horizontal-wire test", "settings": "Table 2, mice, 60 s", "method": "as §1, §2\nMice are lifted by the tail and allowed to grasp a horizontally strung wire (1 mm diameter, 20 cm long and placed 20 cm above the table) with their forepaws and released (Bonetti E. P. et al., Psychopharmacology (Berl). 1982; 78(1): 8-18; PMID: 6292984). For each experimental animal, the number of falling onto the table in 60 seconds was determined.\nThere is no significant difference between same dosage l-THP and dl-THP groups."}},
  "data": [
    {"smiles": "CN1C(=O)CN=C(c2ccccc2)c2cc(Cl)ccc21", "note": "[DZ, Diazepam, reference compound]", "values": [
      {"measurement": "Rearing No.", "setting": "ICR mice [1]; oral 1.0 mg/kg", "result": "26.38 ± 8.51"},
      {"measurement": "Total No. (head-dip and rearing)", "setting": "ICR mice [1]; oral 1.0 mg/kg", "result": "42.00 ± 7.11"},
      {"measurement": "Closed arm entry %", "setting": "ICR mice [2]; oral 1.0 mg/kg, 300 s", "result": "44.58 ± 4.10", "unit": "%"},
      {"measurement": "Closed arm entry No.", "setting": "ICR mice [2]; oral 1.0 mg/kg, 300 s", "result": "16.75 ± 3.26"},
      {"measurement": "Total no. of arm entries", "setting": "ICR mice [2]; oral 1.0 mg/kg, 300 s", "result": "38.25 ± 7.06"},
      {"measurement": "Closed arm Time spent", "setting": "ICR mice [2]; oral 1.0 mg/kg, 300 s test", "result": "159.29 ± 14.18"},
      {"measurement": "Closed arm time spent %", "setting": "ICR mice [2]; oral 1.0 mg/kg, 300 s test", "result": "54.81 ± 4.53", "unit": "%"},
      {"measurement": "Open arm time spent %", "setting": "ICR mice [2]; oral 1.0 mg/kg, 300 s test, 1 mg/kg", "result": "45.19 ± 4.53", "unit": "%"},
      {"measurement": "Open arm entry %", "setting": "ICR mice [2]; oral 1.0 mg/kg, 300 s, 1 mg/kg", "result": "55.42 ± 4.10", "unit": "%"}
    ]},
    {"smiles": "COc1cc2c(cc1OC)C1Cc3ccc(OC)c(OC)c3CN1CC2", "note": "(racemic) [dl-THP, 5,8,18,13a-tetrahydro-2,3,9,10-tetramethoxy-6H-dibenzo [a,q] quinolizine, reference compound]", "values": [
      {"measurement": "Head-dip No.", "setting": "ICR mice [1]; oral 0.1 mg/kg", "result": "13.42 ± 12.06"},
      {"measurement": "Rearing No.", "setting": "ICR mice [1]; oral 0.1 mg/kg", "result": "22.17 ± 12.76"},
      {"measurement": "Total No. (head-dip and rearing)", "setting": "ICR mice [1]; oral 0.1 mg/kg", "result": "35.58 ± 16.47"},
      {"measurement": "Head-dip No.", "setting": "ICR mice [1]; oral 0.5 mg/kg", "result": "17.67 ± 11.14"},
      {"measurement": "Rearing No.", "setting": "ICR mice [1]; oral 0.5 mg/kg", "result": "26.50 ± 10.06"},
      {"measurement": "Total No. (head-dip and rearing)", "setting": "ICR mice [1]; oral 0.5 mg/kg", "result": "44.17 ± 13.53"},
      {"measurement": "Head-dip No.", "setting": "ICR mice [1]; oral 1.0 mg/kg", "result": "13.20 ± 10.64"},
      {"measurement": "Rearing No.", "setting": "ICR mice [1]; oral 1.0 mg/kg", "result": "20.40 ± 15.74"},
      {"measurement": "Total No. (head-dip and rearing)", "setting": "ICR mice [1]; oral 1.0 mg/kg", "result": "33.60 ± 20.37"},
      {"measurement": "Head-dip No.", "setting": "ICR mice [1]; oral 5.0 mg/kg", "result": "11.08 ± 6.34"},
      {"measurement": "Rearing No.", "setting": "ICR mice [1]; oral 5.0 mg/kg", "result": "26.39 ± 12.28"},
      {"measurement": "Total No. (head-dip and rearing)", "setting": "ICR mice [1]; oral 5.0 mg/kg", "result": "37.46 ± 15.95"},
      {"measurement": "Number of falling", "setting": "ICR mice [3]; oral 0.5 mg/kg", "result": "0.30 ± 0.48"},
      {"measurement": "Number of falling", "setting": "ICR mice [3]; oral 1.0 mg/kg", "result": "0.50 ± 0.67"},
      {"measurement": "Number of falling", "setting": "ICR mice [3]; oral 5.0 mg/kg", "result": "0.40 ± 0.49"},
      {"measurement": "Number of falling", "setting": "ICR mice [3]; oral 10 mg/kg", "result": "0.80 ± 0.64"},
      {"measurement": "Number of falling", "setting": "ICR mice [3]; oral 30 mg/kg", "result": "21.60 ± 8.72"},
      {"measurement": "most medicinal dosage (time spent and percentage of open arm entry)", "setting": "ICR mice [2]; oral", "result": 5, "unit": "mg/kg"},
      {"measurement": "Open arm entry %", "setting": "ICR mice [2]; oral 0.1 mg/kg, 300 s", "result": "30.58 ± 5.83", "unit": "%"},
      {"measurement": "Open arm entry No.", "setting": "ICR mice [2]; oral 0.1 mg/kg, 300 s", "result": "8.77 ± 1.88"},
      {"measurement": "Total no. of arm entries", "setting": "ICR mice [2]; oral 0.1 mg/kg, 300 s", "result": "28.92 ± 4.73"},
      {"measurement": "Open arm entry %", "setting": "ICR mice [2]; oral 0.5 mg/kg, 300 s", "result": "43.13 ± 4.17", "unit": "%"},
      {"measurement": "Open arm entry No.", "setting": "ICR mice [2]; oral 0.5 mg/kg, 300 s", "result": "13.15 ± 3.33"},
      {"measurement": "Total no. of arm entries", "setting": "ICR mice [2]; oral 0.5 mg/kg, 300 s", "result": "30.25 ± 5.55"},
      {"measurement": "Open arm Time spent", "setting": "ICR mice [2]; oral 0.5 mg/kg, 300 s test", "result": "80.42 ± 15.23"},
      {"measurement": "Open arm time spent %", "setting": "ICR mice [2]; oral 0.5 mg/kg, 300 s test", "result": "29.25 ± 5.10", "unit": "%"},
      {"measurement": "Open arm entry %", "setting": "ICR mice [2]; oral 1.0 mg/kg, 300 s", "result": "51.17 ± 5.48", "unit": "%"},
      {"measurement": "Open arm entry No.", "setting": "ICR mice [2]; oral 1.0 mg/kg, 300 s", "result": "16.00 ± 3.13"},
      {"measurement": "Total no. of arm entries", "setting": "ICR mice [2]; oral 1.0 mg/kg, 300 s", "result": "31.20 ± 4.16"},
      {"measurement": "Open arm Time spent", "setting": "ICR mice [2]; oral 1.0 mg/kg, 300 s test", "result": "88.40 ± 17.37"},
      {"measurement": "Open arm time spent %", "setting": "ICR mice [2]; oral 1.0 mg/kg, 300 s test", "result": "29.95 ± 5.31", "unit": "%"},
      {"measurement": "hypnotic effect / inhibition of the nervous system", "setting": "ICR mice [2]; oral 5 mg/kg", "result": "does not induce a hypnotic effect or inhibit the nervous system"},
      {"measurement": "Open arm entry %", "setting": "ICR mice [2]; oral 5.0 mg/kg, 300 s", "result": "50.21 ± 4.04", "unit": "%"},
      {"measurement": "Open arm entry No.", "setting": "ICR mice [2]; oral 5.0 mg/kg, 300 s", "result": "15.23 ± 3.19"},
      {"measurement": "Total no. of arm entries", "setting": "ICR mice [2]; oral 5.0 mg/kg, 300 s", "result": "30.15 ± 4.83"},
      {"measurement": "Open arm Time spent", "setting": "ICR mice [2]; oral 5.0 mg/kg, 300 s test", "result": "95.00 ± 23.56"},
      {"measurement": "Open arm time spent %", "setting": "ICR mice [2]; oral 5.0 mg/kg, 300 s test", "result": "32.79 ± 8.60", "unit": "%"}
    ]}
  ]
}
